{"source": "patent US20260217983A1", "about": "“SULFONIUM SALT PHOTOINITIATORS AND METHODS OF LED CURING A COMPOSITION WITH SAID SULFONIUM SALT PHOTOINITIATORS” (ARKEMA FRANCE, priority 2022, published 2026)", "key": {"[1]": {"assay": "Real time FT-IR curing performance in UViCure S105 at 365 and 385 nm", "details": "for Polymerization rate Rp/[M0]*100 / Final conversion: UViCure S105, 20 μm thickness, under air; for Final conversion: epoxide band; for cure speed compared with photoinitiators known from prior art such as Omnicat BL 550: LED lamp conditions, Example 2", "procedure": "The curing performance of individual products prepared above was assessed using real time FT-IR measurement. The photoinitiators were dissolved in cycloaliphatic epoxy resin UViCure S105 (available from Sartomer) at the indicated wt % loading, applied onto the FT-IR measurement plate and irradiated with the indicated LED light source. The polymerization rate and final reactive group conversion were determined by monitoring the change of the relevant infrared band near 900 cm^−1 corresponding to an epoxide ring during irradiation. The molar extinction coefficients for the photoinitiator products (ε, expressed in M^−1 cm^−1) were determined in acetonitrile at 10^-3 M or 10^-5 M concentration."}, "[2]": {"assay": "FTIR-ATR cure test of hybrid formulations (acrylate, epoxide conversion, 1100 cm^-1 peak growth)", "details": "405 nm; for Epoxide cure compared with Omnicat 550: 0.5% TPO-L, matched with control SC938/CPTX; for Epoxide cure compared with Omnicat 550 / acrylate cure with or without radical photoinitiator: high or low epoxide hybrid systems; for epoxide cure and total cationic cure compared with Omnicat 550 and SC992: in presence or absence of radical photoinitiator", "procedure": "(§1) Matrixes: In a 1000 mL of metal can, formulation matrix was charged according to the percentage in Table 12. The 1000-1005 g mixture of each matrix sample was prepared and mixed by mechanical mixer for about 1 hour around 60° C. until the solution became clear. Formulations: In a white max 50 jar from FlackTek Inc., photoinitiator and propylene carbonate were loaded at first, mixed by hand with stainless steel spatula, placed in 60° C. oven for about 1 h, mixed again until it became clear. Then, formulation matrix was charged according to the percentage in one of Table 13 to 21. The […]-52.60 g mixture of each sample was prepared and mixed for 3 minutes at 3000 RPM in Speed Mixer from FleackTec Inc. Then, all jars were placed in 60° C. oven for about 2 h, taken out and immediately mixed for another 2 minutes until the solution became clear.\n(§2) A Fourier Transform Infrared (FTIR) with an Attenuated Total Reflection (ATR) setup was used. All polymerization rate measurements were performed using Nicolet iS50 FT-IR Spectrometer from Thermo Scientific, equipped with a standard DLaTGS detector. A lamp holder for the ART platform of FTIR unit can be customized and printed from Arkema N3xtDimention® engineered resin N3D-TOUGH784 in order to ensure precisely fit of a 365 nm lamp Accucure ULM-2-365 or a 405 nm lamp Accucure ULM-2-405 from Digital Light Labs. On the bottom of this lamp holder, a dry air channel is built in to allow air uniformly blowing over sample surface, the gas flow rate can be controlled over a rotameter. The LED light was manually triggered by Ultraviolet illumination & Measurement System. LED light exposure can be programed by AccuCure software. For measurement, 25 μL of liquid sample was placed in the center of an ATR crystal. 3 mil of thin film was prepared by a customized coating applicator (3 mil WFM, G1046 from BYK). The LED lamp with holder was place on the top of ART platform. Then FTIR scan was initiated to collect liquid IR spectrum at first. Each IR spectrum of a specific exposure time at 10 mW/cm^2 of LED light were collected. Measurements of acrylate conversion were taken at the peak height under the reference peak around 1727 cm^−1; the acrylate peak of SR833S at approximately 1407 cm^−1, the epoxide peak of UviCure S105 at approximately 790 cm^−1, and the oxetane peak of UViCure S130 at approximately 970 cm^−1 were also measured. Since the ring opening of both epoxide and oxetane generated C—O—C bond, the growth of C—O—C IR peak height at ~1100 cm^−1 was monitored as well. The resulting of peak 1100 cm^−1 growth rate could be calculated to assess total cationic cure speed. Peak heights were determined using the same baseline where a baseline is chosen to be the two lowest points between 600 cm^−1 and 1800 cm^−1. The peak height under the peak and above the baseline was then determined. The integration limits for liquid and the cured sample are not identical but are similar, especially for the reference peak.\n(§3) The ratios of the acrylate peak height, epoxide peak height, ring opening peak height from both epoxide and oxetane to the reference peak height were determined for both the liquid and the cured samples. Degree of cure or conversion or peak growth rate, expressed as percentage reacted acrylate or epoxide or ring opening of both epoxide and oxetane, was calculated from the equation below: […]\n(§4) Where Rliq is the peak height ratio of the liquid sample and Rc is the peak height ratio of the LED cured sample. The resulting acrylate and epoxide conversions or C—O—C growth rates were collected and listed in Tables 13 to 21, plotted in FIG. 1 to 8 and FIG. 10."}, "[3]": {"assay": "FTIR-ATR cure test of cationic formulations (epoxide, oxetane conversion, 1100 cm^-1 peak growth)", "details": "405 nm, cationic systems", "procedure": "as §1, §2, §3, §4"}, "[4]": {"assay": "Working-curve measurement (Ec, Dp) on 405 nm DLP printers", "details": "at lower concentration", "procedure": "Working-curves were printed on the 405 nm~3 mW/cm^2 Flashforge Hunter DLP printer or on the 405 nm~12 mW/cm^2 B9 Core 550 DLP printer from B9Creation. Various energy dosages were irradiated in sections of the build area (without a build platform installed), resulting in individual squares or thin films being cured. The thickness of the individual thin films were measured with a low force digital caliper+comparator stand from Mitutoyo to determine the cure depths. A plot of the cure depths vs. the logarithm of energy dosages was used to determine the critical exposure (Ec, mJ/cm^2) and penetration depth (Dp, mils)."}, "[5]": {"details": "LED @365 nm (120 W/cm^2), PI loading 1 wt % (Omnicat BL 550 4 wt %; Speedcure 938/CPTX 1/0.5 wt %)"}}}
{"smiles": "CC(C)c1ccc2sc3ccc(-[s+]4c5ccccc5c(=O)c5cc(C(C)C)ccc54)cc3c(=O)c2c1", "note": "(stereo not shown) [Photoinitiator 1, 9-oxo-10-[9-oxo-7-(propan-2-yl)-9H-thioxanthen-2-yl]-2-(propan-2-yl)-9H-thioxanthen-10-ium hexafluorophosphate]", "values": [{"measurement": "Polymerization rate Rp/[M0]*100", "setting": "[1]; [5]", "result": 8.93, "unit": "s⁻¹"}, {"measurement": "Final conversion", "setting": "[1]; LED @365 nm (120 W/cm^2)", "result": 35, "unit": "%"}, {"measurement": "Polymerization rate Rp/[M0]*100", "setting": "[1]; LED @385 nm (160 W/cm^2)", "result": 8.89, "unit": "s⁻¹"}, {"measurement": "Final conversion", "setting": "[1]; LED @385 nm (160 W/cm^2)", "result": 36, "unit": "%"}, {"measurement": "Epoxide cure compared with Omnicat 550", "setting": "[2]", "result": "better than that from Omnicat 550"}, {"measurement": "cationic cure compared with 2 (comp.) or 4 (comp.)", "setting": "[3]", "result": "performed slightly better than 2 (comp.) or 4 (comp.)"}, {"measurement": "epoxide, oxetane and total cationic cure compared with Omnicat550 and SC992", "setting": "[3]", "result": "better epoxide cure, oxetane cure as well as total cationic cure than both Omnicat550 and SC992"}]}
{"smiles": "Cc1ccc([S+](c2ccc(C(=O)c3ccccc3)cc2)c2ccc3sc4ccc(C(C)C)cc4c(=O)c3c2)cc1", "note": "(stereo not shown) [Photoinitiator 2, (4-benzoylphenyl)(4-methylphenyl)[9-oxo-7-(propan-2-yl)-9H-thioxanthen-2-yl]sulfonium Hexafluorophosphate]", "values": [{"measurement": "Polymerization rate Rp/[M0]*100", "setting": "[1]; [5]", "result": 4.11, "unit": "s⁻¹"}, {"measurement": "Final conversion", "setting": "[1]; LED @365 nm (120 W/cm^2)", "result": 41, "unit": "%"}, {"measurement": "Polymerization rate Rp/[M0]*100", "setting": "[1]; LED @385 nm (160 W/cm^2)", "result": 5.96, "unit": "s⁻¹"}, {"measurement": "Final conversion", "setting": "[1]; LED @385 nm (160 W/cm^2)", "result": 41, "unit": "%"}, {"measurement": "cure speed compared with photoinitiators known from prior art such as Omnicat BL 550", "setting": "[1]", "result": "higher cure speed"}, {"measurement": "epoxide, oxetane and total cationic cure compared with Omnicat550 and SC992", "setting": "[3]", "result": "better epoxide cure, oxetane cure as well as total cationic cure than both Omnicat550 and SC992"}]}
{"smiles": "CCc1cc(CC)c2sc3ccc([S+](c4ccc(C)cc4)c4ccc(C(=O)c5ccccc5)cc4)cc3c(=O)c2c1", "note": "(stereo not shown) [Photoinitiator 4, (4-benzoylphenyl)(5,7-diethyl-9-oxo-9H-thioxanthen-2-yl)(4-methylphenyl)sulfonium Hexafluorophosphate]", "values": [{"measurement": "Polymerization rate Rp/[M0]*100", "setting": "[1]; [5]", "result": 5.74, "unit": "s⁻¹"}, {"measurement": "Final conversion", "setting": "[1]; LED @365 nm (120 W/cm^2)", "result": 25, "unit": "%"}, {"measurement": "Polymerization rate Rp/[M0]*100", "setting": "[1]; LED @385 nm (160 W/cm^2)", "result": 4.80, "unit": "s⁻¹"}, {"measurement": "Final conversion", "setting": "[1]; LED @385 nm (160 W/cm^2)", "result": 25, "unit": "%"}, {"measurement": "cure speed compared with photoinitiators known from prior art such as Omnicat BL 550", "setting": "[1]", "result": "higher cure speed"}, {"measurement": "Epoxide cure compared with Omnicat 550", "setting": "[2]", "result": "better than that from Omnicat 550"}, {"measurement": "acrylate cure with or without radical photoinitiator", "setting": "[2]", "result": "high acrylate cure"}, {"measurement": "epoxide cure and total cationic cure compared with Omnicat 550 and SC992", "setting": "[2]; hybrid systems", "result": "better epoxide cure and total cationic cure than Omnicat 550 and SC992"}, {"measurement": "acrylate cure in presence of BKL or XKm, or without any radical initiator", "setting": "[2]; hybrid systems, like SC938/CPTX", "result": "could cure acrylate very well"}, {"measurement": "epoxide, oxetane and total cationic cure compared with Omnicat550 and SC992", "setting": "[3]", "result": "better epoxide cure, oxetane cure as well as total cationic cure than both Omnicat550 and SC992"}]}
{"smiles": "CCCOc1ccc(Cl)c2c(=O)c3cc(-[s+]4c5ccccc5c(=O)c5c(Cl)ccc(OCCC)c54)ccc3sc12", "note": "(stereo not shown) [Photoinitiator 5, 1-chloro-10-(8-chloro-9-oxo-5-propoxy-9H-thioxanthen-2-yl)-9-oxo-4-propoxy-9H-thioxanthen-10-ium Hexafluorophosphate]", "values": [{"measurement": "Dp and Ec compared with 4 (comp.)", "setting": "[4]", "result": "lower Op and higher Ec than 4 (comp.)"}, {"measurement": "Polymerization rate Rp/[M0]*100", "setting": "[1]; [5]", "result": 6.57, "unit": "s⁻¹"}, {"measurement": "Final conversion", "setting": "[1]; LED @365 nm (120 W/cm^2)", "result": 36, "unit": "%"}, {"measurement": "Polymerization rate Rp/[M0]*100", "setting": "[1]; LED @385 nm (160 W/cm^2)", "result": 5.90, "unit": "s⁻¹"}, {"measurement": "Final conversion", "setting": "[1]; LED @385 nm (160 W/cm^2)", "result": 39, "unit": "%"}, {"measurement": "cure speed compared with photoinitiators known from prior art such as Omnicat BL 550", "setting": "[1]", "result": "higher cure speed"}, {"measurement": "Epoxide cure compared with Omnicat 550", "setting": "[2]", "result": "better than that from Omnicat 550"}, {"measurement": "acrylate cure with or without radical photoinitiator", "setting": "[2]", "result": "high acrylate cure"}, {"measurement": "epoxide cure and total cationic cure compared with Omnicat 550 and SC992", "setting": "[2]; hybrid systems", "result": "better epoxide cure and total cationic cure than Omnicat 550 and SC992"}, {"measurement": "cationic cure compared with 2 (comp.) or 4 (comp.)", "setting": "[3]", "result": "performed slightly better than 2 (comp.) or 4 (comp.)"}, {"measurement": "epoxide, oxetane and total cationic cure compared with Omnicat550 and SC992", "setting": "[3]", "result": "better epoxide cure, oxetane cure as well as total cationic cure than both Omnicat550 and SC992"}]}
